The test system of experiment [1] is standard bacterial strains. The experiment is described as follows: MIC, summary over standard bacterial strains. In kind it is cell-based. To be noted: Staphylococcus aureus, ATCC 29213, 25923, and 6538; S. aureus strains other than NCTC 4163; read-out: MIC against the other three strains of S. aureus. The text has this:
To evaluate the antibacterial effectiveness of chloroquinobenzothiazine derivatives, various bacterial strains from international microbe collections such as the American Type Culture Collection (ATCC) and the National Collection of Type Culture (NCTC) were examined, alongside a panel of clinical rods. This included two Gram-negative organisms, E. coli ATCC 25922 and P. aeruginosa ATCC 15442, and a series of six Gram-positive strains: S. aureus NCTC 4163; S. aureus ATCC 29213, 25923, and 6538; and S. epidermidis ATCC 12228 and 35984. The antimicrobial activity was examined using the Minimal Inhibitory Concentration (MIC) method, following standard CLSI procedures with slight adjustments. The MIC was determined using the two-fold serial broth microdilution method in 96-well microtitration plates containing Mueller-Hinton II broth medium (Becton Dickinson, Franklin Lakes, NJ, USA). The final inoculum for all tested bacteria was adjusted to […] (colony-forming units per milliliter). The stock solution of the tested compounds was prepared in dimethyl sulfoxide (DMSO) and diluted to a maximum of 1% solvent content with a sterile medium.

In a further experiment the test system is HCT116 cells. In words: Cell cycle analysis by flow cytometry, HCT116. In kind it is cell-based, human. To be noted: IC50, 24 h, compared to the control. Summed up:
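Cells seeded at 1 × 10^5/well, adhered 24 h; attached and detached cells pooled, fixed overnight in 70% cold ethanol. Staining with RNase and propidium iodide (30 min, 37 °C, dark) preceded flow cytometry of sub-G1, G0/G1, S and G2/M fractions, in quadruplicate.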

The subject of another experiment is cancer cell lines. In words: MTT assay, summary over several cell lines. Format: cell-based, human. Conditions: Homo sapiens; range over two cell lines not given; read-out: IC50 range against two tested cell lines. The protocol: The human cell lines, such as A549 (lung cancer), MDA-MB-231 (breast cancer), MiaPaca-2 (pancreatic cancer), PC3 (metastatic prostate cancer), HCT-116 (colon carcinoma), and HaCaT (immortalized keratinocytes), were sourced from the American Type Culture Collection (ATCC) in Rockville, USA. Culturing conditions varied as follows: HCT116 cells were cultured in MEM (ThermoSci, Waltham, MA, USA), A549, MDA-MB-231, MiaPaca, HaCaT cells in DMEM High Glucose and PC3 cells were cultured in RPMI (Biowest SAS, Nuaillé, France). The growth medium consisted of 10% fetal bovine serum (FBS, Sigma-Aldrich, St. Louis, MO, USA), 20 mM HEPES (Biowest, Nuaillé, France), and antibiotics (100 U/mL of penicillin and 100 μg/mL of streptomycin) from Gibco, Grand Island, NY, USA. […] These compounds were added to 96-well plates containing study cells (1 × 10^4 cells per well) and incubated for 72 h. […] Cell absorbance results were incorporated into the formula for calculating the relative MTT level (%), enabling the assessment of cell viability following exposure to the test compounds. The cell viability percentage represents the MTT reduction in cells treated with the test compounds compared to the control sample, where only the medium was added to the cells.

On to `CN1CCCCC1CCN1c2cc(Cl)ccc2Sc2cc3ccccc3nc21` (stereo not drawn) [Compound 11, 8-Chloro-6-(2-(1-methylpiperidin-2-yl)ethyl)-quino[3,2-b]benzo[1,4]thiazine], for which the MIC in experiment [1] is > 128 µg/mL. Moreover, the “increase in the cell amount at the sub-G1 phase, HCT116” value with HCT116 cells is on record as 2 fold. Moreover, in the experiment with cancer cell lines, the IC50 was 16.1 to 16.7 µM.

The values above are taken from article PMC11050599, “Novel Tetracyclic Azaphenothiazines with the Quinoline Ring as New Anticancer and Antibacterial Derivatives of Chlorpromazine” (International Journal of Molecular Sciences, 2024).
